These results are taken from patent publication US20090192191A1, “Substituted hydroxamic acid derivatives as tnf inhibitors” (priority 2004, published 2009).

In the first assay the test system is TNF-α. The experiment in a line: In vitro screening for TNF-α inhibitory activity using rat whole blood assay. The class given is cell-based. The settings on record: 10 μM test substance, LPS 1 μg/mL, 5 h at 37° C, plasma TNF-α by ELISA. Here is the method:
In Vitro Screening for TNF-α Inhibitory Activity Using Rat Whole Blood Assay:
Rats were deeply anaesthetized with anesthetic ether and blood (6-8 mL) was collected through retro-orbital plexus in a tube containing heparin (100 IU/mL). Five hundred microlitre blood sample was incubated with different concentrations of the test substances for 15 min at 37° C. LPS (1 μg/mL, final concentration) was subsequently added and the mixture was further incubated for 5 h at 37° C. The reaction was terminated by placing the samples over ice for 15 min. The samples were then centrifuged at 1000 g for 15 min at 4° C. The plasma was separated and stored in deep freezer until the assay. TNF-α levels were estimated in the treated plasma samples by ELISA method using commercially available kit (R&D System, Inc., USA). The inhibition of the TNF-α[…] production may be taken as an indicator of inhibition of TACE activity.
As to “2-3-Amino-3-{4-[2-(4-methoxy)phenyl)-quinolin-4-ylmethoxy]-phenyl}-2-oxo-pyrrolidin-1-yl)-4-methyl-pentanoic acid hydroxyamide [Compound 14]”, the “% of TNF-α inhibition at 10 μM dose” value turned out to be 85%.
Same read-out and setting: the same measure for “2-{3-Amino-2-oxo-3-[4-2-p-tolyl-quinolin-4-ylmethoxy)-phenyl]-pyrrolidin-1-yl}-N-hydroxy-propionamide [Compound 9]”: 82%; for “2-{3-Amino-2-oxo-3-[4-(2-p-tolylsuinolin-4-ylmethoxy)-phenyl]-pyrrolidin-1-yl}-4-methyl-pentanoic acid hydroxyamide [Compound 8]”: 84%.
Same read-out and setting: then `CC(C)CC(C(=O)NO)N1CCC(N)(c2ccc(OCc3cc(COC(C)C)nc4ccccc34)cc2)C1=O` (centres unmarked) [Compound 5], with 94%; and `COc1cccc(-c2cc(COc3ccc(C4(N)CCN(C(CC(C)C)C(=O)NO)C4=O)cc3)c3ccccc3n2)c1` (centres unmarked) [Compound 27], with 79%.

The assay is the same for the next values; noted with them: 10 μM test substance, LPS 1 μg/mL, 5 h at 37° C, plasma TNF-α by ELISA, read-out: % of TNF-α inhibition at 10 μM dose.
With `COc1ccc(-c2cc(COc3ccc([C@]4(N)CCN([C@H](C)C(=O)NO)C4=O)cc3)c3ccccc3n2)cc1` (stereo in doubt) [Compound 15, 2-(3-Amino-3-{4-[2-(4-methoxy-phenyl}-quinolin-4-ylmethoxy]-phenyl)-2-oxo-pyrrolidin-1-yl)-N-hydroxy-propionamide], the inhibition at 10 µM stood at 84%.
Same read-out and setting: then `COCc1cc(COc2ccc([C@]3(N)CCN([C@H](CC(C)C)C(=O)NO)C3=O)cc2)c2ccccc2n1` [Compound 2], with 92%.
For `COCCc1cc(COc2ccc(C3(N)CCN(C(CC(C)C)C(=O)NO)C3=O)cc2)c2ccccc2n1` (centres unmarked) [Compound 7, 2-(3-Amino-3-{4-[2-(2-methoxy-ethyl)quinolin-4-ylmethoxy]-phenyl}-2-oxo-pyrrolidin-1-yl)-4-methyl-pentanoic acid hydroxyamide], the inhibition at 10 µM came out at 85%.
